Biological target: T1, human GPR119 (Homo sapiens, UniProt Q8TDV5)
T1 construct: expression vector for human GPR119 cDNA (Acc. No. NP_848566); expressed in transfected cells
T1 sequence (Q8TDV5 1-335): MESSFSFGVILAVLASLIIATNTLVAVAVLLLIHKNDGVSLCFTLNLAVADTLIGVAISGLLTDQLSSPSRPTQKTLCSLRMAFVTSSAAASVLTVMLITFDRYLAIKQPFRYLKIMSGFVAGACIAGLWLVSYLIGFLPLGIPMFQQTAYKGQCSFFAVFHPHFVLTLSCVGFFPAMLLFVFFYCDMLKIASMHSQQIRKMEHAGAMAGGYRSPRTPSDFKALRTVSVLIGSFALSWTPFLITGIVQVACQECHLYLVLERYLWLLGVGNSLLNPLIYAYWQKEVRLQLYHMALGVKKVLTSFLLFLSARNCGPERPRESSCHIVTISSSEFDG
Experiment: AlphaScreen cAMP assay, activation of GPR119 in Min-6/hGPR119 cells
Assay type: cell-based
Conditions: MIN6 cells stably transfected with human GPR119; intracellular cAMP; 45 minutes incubation at room temperature
Experimental: The compounds of formula I according to the invention modulate the activity of the G-protein-coupled receptor GPR119. The effect of the compounds on the activation of GPR119 and on the stimulation of intracellular cAMP concentration is determined using the AlphaScreen cAMP Assay Kit (Cat. No. #6760625R) made by PerkinElmer.
MIN6 cells [Miyazaki J et al. Endocrinology. 1990 July; 127(1):126-32] are stably transfected with an expression vector for human GPR119 cDNA (Acc. No. NP_848566). Min-6/hGPR119 cells are cultured in DMEM, 10% FBS, 500 μM β-mercaptoethanol, 0.3 mg/mL Geniticin, 2 mM GlutaMAX at 37° C. 5% CO2. For the assay, the cells are seeded in Optiplates (white, 384-well, 160 W— barcoded, TC, sterile with lid, Cat. No. #6007688 (Perkin Elmer); 10000 cells/well; 50 μl). The plates covered with lids are then incubated for 24 hours at 37° C./5% CO2. After the medium is aspirated from the wells completely, 10 μl of the test compound are added, the compounds are diluted using stimulating buffer (140 mM NaCl, 3.6 mM KCl, 0.5 mM NaH2PO4, 0.5 mM MgSO4, 1.5 mM CaCl2, 10 mM Hepes, 5 mM NaHCO3; pH 7.4. 0.5 mM IBMX and 0.1% BSA, the final DMSO concentration is 1%). After 45 minutes incubation at room temperature (approx. 20° C.), the cAMP concentrations are determined using the AlphaScreen cAMP Assay Kit (Cat. No. #6760625R from PerkinElmer).

EC50 | Compound
18 nM | CC(C)(C)c1noc(N2CCC(C3Cc4cc(C5=CCN(S(C)(=O)=O)CC5)ncc4O3)CC2)n1 (stereo not drawn) [Example 34, 2-[1-(3-tert-Butyl-[1,2,4]oxadiazol-5-yl)-piperidin-4-yl]-5-(1-methanesulfonyl-1,2,3,6-tetrahydro-pyridin-4-yl)-2,3-dihydro-furo[2,3-c]pyridine]
17 nM | CC(C)c1nc(N2CCC(C3Cc4cc(-c5ccc(CS(C)(=O)=O)cc5)ncc4O3)CC2)no1 (stereo not drawn) [Example 16]
6 nM | C[C@@]1(C2CCN(c3ccc(C(F)(F)F)cn3)CC2)Cc2cc(C3=CCN(S(C)(=O)=O)CC3)ncc2O1 (single isomer, unassigned) [Example 37]
52 nM | CCCc1noc(N2CCC(C3Cc4cc(-c5ccc(S(C)(=O)=O)cc5)ccc4O3)CC2)n1 (stereo not drawn) [Example 4, 4-[5-(4-Methanesulfonyl-phenyl)-2,3-dihydro-benzofuran-2-yl]-1-(3-propyl-[1,2,4]oxadiazol-5-yl)-piperidine]
3 nM | CS(=O)(=O)N1CC=C(c2cc3c(cn2)O[C@@H](C2CCN(c4ncc(C5CC5)cn4)CC2)C3)CC1 (single isomer, unassigned) [Example 91]
11 nM | CC(C)c1nc(N2CCC(C3Cc4cc(-c5ccc(S(C)(=O)=O)cc5)ncc4O3)CC2)no1 (stereo not drawn) [Example 8, 2-[1-(5-Isopropyl-[1,2,4]oxadiazol-3-yl)-piperidin-4-yl]-5-(4-methanesulfonyl-phenyl)-2,3-dihydro-furo[2,3-c]pyridine]
60 nM | CS(=O)(=O)c1ccc(-c2cc3c(cn2)O[C@H](C2CCN(c4ncc(Cl)cn4)CC2)C3)cc1 (single isomer, unassigned) [Example 90]
32 nM | CC(C)c1noc(N2CCC(C3Cc4cc(-c5ccc(S(C)(=O)=O)cc5)ncc4O3)CC2)n1 (stereo not drawn) [Example 6, 2-[1-(3-Isopropyl-[1,2,4]oxadiazol-5-yl)-piperidin-4-yl]-5-(4-methanesulfonyl-phenyl)-2,3-dihydro-furo[2,3-c]pyridine]
8 nM | CC(C)(C)c1nc(N2CCC(C3Cc4cc(C5=CCN(S(C)(=O)=O)CC5)ncc4O3)CC2)no1 (stereo not drawn) [Example 39]

— patent US8778926B2, “Compounds, pharmaceutical compositions and uses thereof” (Boehringer Ingelheim International GmbH, priority 2011, dated 2014)
